Values of other authors in patent publication US20180203025A1, “HDL THERAPY MARKERS” (Cerenis Therapeutics Holding SA, priority 2014, published 2018).
Where two headings read alike, the source gives them in different places.

Assays:
[1] = associated to statin; cited from earlier work
[2] = compared to atorvastatin; cited from earlier work
[3] = ACS patients, cited from earlier work
[4] = added to 80 mg atorvastatin, cited from earlier work

COc1cc(F)c(C(C)C)cc1-c1ccc(C(F)(F)F)cc1CN1C(=O)O[C@H](c2cc(C(F)(F)F)cc(C(F)(F)F)c2)[C@@H]1C [anacetrapib]
further decrease of LDL-cholesterol [1]: about 40% | HDL-cholesterol increase [2]: about 140% | LDL-cholesterol lowering [2]: 40%

CCC(CC)CC1(C(=O)Nc2ccccc2SC(=O)C(C)C)CCCCC1 [dalcetrapib]
ApoA-I increase [3]: 18% | HDL-cholesterol increase [3]: about 30% | LDL-cholesterol [3]: no changes in LDL-cholesterol | clinical benefit compared to placebo ([3]; interim analysis): no benefit | LDL-cholesterol [1]: remains unchanged

Cc1cc(C)c2c(c1)[C@@H](N(Cc1cc(C(F)(F)F)cc(C(F)(F)F)c1)c1nnn(C)n1)CCCN2C[C@H]1CC[C@H](C(=O)O)CC1 [evacetrapib]
further decrease of LDL-cholesterol [1]: about 40%

CCOC(=O)N1c2ccc(C(F)(F)F)cc2[C@@H](N(Cc2cc(C(F)(F)F)cc(C(F)(F)F)c2)C(=O)OC)C[C@H]1CC [torcetrapib]
HDL-cholesterol increase ([4]; compared to Atorvastatin alone): 80% | LDL-cholesterol decrease ([4]; compared to Atorvastatin alone): 25% | mortality and morbidity ([4]; 15 067 patients): increase of the mortality and morbidity | further decrease of LDL-cholesterol [1]: about 40%
